The values that follow come from patent US20160053227A1, “AGENT FOR INDUCING DIFFERENTIATION OF WHITE ADIPOCYTES INTO BROWN-LIKE ADIPOCYTES” (UHA MIKAKUTO CO., LTD., priority 2013, published 2016).

The nature of data set [1]: Physicochemical characteristics: solubility. The text has this: The physicochemical characteristics of UHA4022 are as follows.
The subject of data set [2] is 3T3-L1 precursor adipocyte. Nature of the data set: Example II-3: index gene expression in adipocytes after maturation, with or without adrenaline stimulation, real-time RT-PCR. Format: cell-based, mouse. The note with it: matured cells, 1 μM L-adrenaline for 2 hours; control 3.1 times. The protocol: Since it was evaluated in Example II-2 whether the derivative-containing composition induces the differentiation from the white adipocytes into the brown-like adipocytes using the cells immediately after the induction of the differentiation, it was evaluated in Example II-3 whether the relevant induced cell maintains the trait of the brown-like adipocytes even after maturation using matured adipocytes. The evaluation was made using as indexes the expression level of each gene of FGF-21, PGC-1α, and cell death-inducing DFFA-like effector a (Cidea) which is a brown-like adipocyte marker gene as well as the expression level of […] gene when adding adrenaline to the adipocyte after maturation based on the understanding that the brown-like adipocyte responds to the adrenaline stimulation thereby increasing the expression level of UCP1 gene, whereby the induction of the differentiation of the white adipocytes into the brown-like adipocytes was confirmed. […]
Based on the Ct values (Threshold Cycle: number of cycles for achieving a certain amplification level (threshold)) of […], FGF-21, PGC-1α, PGC-1β, Cidea, and UCP1 in each cell obtained, the relative value of each gene expression level of FGF-21, PGC-1β, PGC-1α, Cidea, and UCP1 was calculated.
A general note: In qPCR the cycle at which signal appears reflects the starting amount.

Regarding `Oc1ccc(/C=C\c2c3c(cc4c2C(c2ccc(O)cc2)Cc2cc(O)cc(O)c2-4)-c2c(O)cc(O)cc2CC3c2ccc(O)cc2)cc1` (stereo not shown) [UHA4022], the Solubility in chloroform result in data set [1] (Chloroform) is given as “Hardly soluble”. The “Solubility in DMSO” value in data set [1] (DMSO) is “Soluble”. Also, the Solubility in ethanol entry in data set [1] (Ethanol) is reported as “Soluble”. Besides, the “Solubility in ethyl acetate” value in data set [1] (Ethyl acetate) was “Hardly soluble”. In addition, the Solubility in methanol result in data set [1] (Methanol) is recorded as “Soluble”. For the same molecule, the Solubility in water entry in data set [1] (Water) is given as “Hardly soluble”.

For the molecule `CN(CCOc1ccc(CC2SC(=O)NC2=O)cc1)c1ccccn1` (stereo not shown) [rosiglitazone], the “UCP1 gene expression-increasing effect of adrenaline, presence vs absence of adrenaline” value in data set [2] is listed as 6.2 times.
